Assay [1] concerns the target human PDE 5 (Homo sapiens (Human), UniProt O76074). As to the kind of experiment: Inhibition of human phosphodiesterase 5 (PDE 5), SPA assay. The format is biochemical. Particulars: PDE 5 preparation from human platelets, [8-3H]cGMP substrate. As to the method: B-6. Inhibition of Human Phosphodiesterase 5 (PDE 5)
PDE 5 preparations are obtained from human platelets by disruption (Microfluidizer®, 800 bar, 3 passes), followed by centrifugation (75 000 g, 60 min, 4° C.) and ion exchange chromatography of the supernatant on a Mono Q 10/10 column (linear sodium chloride gradient, elution with a 0.2-0.3M solution of sodium chloride in buffer (20 mM Hepes pH 7.2, 2 mM magnesium chloride). Fractions having PDE 5 activity are combined (PDE 5 preparation) and stored at −80° C.
To determine their in vitro action on human PDE 5, the test substances are dissolved in 100% DMSO and serially diluted. Typically, dilution series (1:3) from 200 μM to 0.091 μM are prepared (resulting final concentrations in the test: 4 μM to 0.0018 μM). In each case 2 μl of the diluted substance solutions are placed into the wells of microtitre plates (Isoplate-96/200 W; Perkin Elmer). Subsequently, 50 μl of a dilution of the above-described PDE 5 preparation are added. The dilution of the PDE 5 preparation is selected such that, during the later incubation, less than 70% of the substrate is converted (typical dilution: 1:100; dilution buffer: 50 mM tris/hydrochloric acid pH 7.5, 8.3 mM magnesium chloride, 1.7 mM EDTA, 0.2% BSA). The substrate, [8-^3H]cyclic guanosine-3′,5′-monophosphate (1 μCi/μl; Perkin Elmer) is diluted 1:2000 with assay buffer (50 mM tris/hydrochloric acid pH 7.5, 8.3 mM magnesium chloride, 1.7 mM EDTA) to a concentration of 0.0005 μCi/μl. By addition of 50 μl (0.025 μCi) of the diluted substrate, the enzyme reaction is finally started. The test mixtures are incubated at room temperature for 60 min and the reaction is stopped by adding 25 μl of a suspension of 18 mg/ml yttrium scintillation proximity beads in water (phosphodiesterase beads for SPA assays, RPNQ 0150, Perkin Elmer). The microtitre plates are sealed with a film and left to stand at room temperature for 60 min Subsequently, the plates are analysed for 30 s per well in a Microbeta scintillation counter (Perkin Elmer). IC50 values are determined using the graphic plot of the substance concentration against percentage PDE 5 inhibition.

The test system of assay [2] is rabbit aorta rings. As to the kind of experiment: Vasorelaxant effect in vitro (rabbit aorta rings precontracted with phenylephrine). Particulars: Oryctolagus cuniculus, phenylephrine contraction, read-out: IC50 (concentration needed to reduce the magnitude of the phenylephrine contraction by 50%). Here is the method: B-1. Vasorelaxant Effect In Vitro
Rabbits are stunned by a blow to the neck and exsanguinated. The aorta is removed, freed from adhering tissue and divided into rings of width 1.5 mm, which are placed individually under prestress into 5 ml organ baths with carbogen-sparged Krebs-Henseleit solution at 37° C. having the following composition (each mM): sodium chloride: 119; potassium chloride: 4.8; calcium chloride dihydrate: 1; magnesium sulphate heptahydrate: 1.4; potassium dihydrogenphosphate: 1.2; sodium hydrogencarbonate: 25; glucose: 10. The contractile force is determined with Statham UC2 cells, amplified and digitalized using A/D transducers (DAS-1802 HC, Keithley Instruments Munich), and recorded in parallel on linear recorders.
To obtain a contraction, phenylephrine is added to the bath cumulatively in increasing concentration. After several control cycles, the substance to be studied is added in increasing dosage each time in every further run, and the magnitude of the contraction is compared with the magnitude of the contraction attained in the last preceding run. This is used to calculate the concentration needed to reduce the magnitude of the control value by 50% (IC50 value). The standard administration volume is 5 μl; the DMSO content in the bath solution corresponds to 0.1%.

Assay [3] deals with recombinant guanylate cyclase reporter cell line. As to the kind of experiment: Effect on a recombinant guanylate cyclase reporter cell line. Format: cell-based. Particulars: read-out: MEC (minimal effective concentration). Here is the method: B-2. Effect on a Recombinant Guanylate Cyclase Reporter Cell Line
The cellular action of the inventive compounds is determined on a recombinant guanylate cyclase reporter cell line as described in F. Wunder et al., Anal. Biochem. 339, 104-112 (2005).

As for `Cc1ncc2c(-c3nnc4c(n3)NC(=O)C4(C)C)nn(Cc3cccc(F)c3F)c2n1` [Example 18, 3-[1-(2,3-Difluorobenzyl)-6-methyl-1H-pyrazolo[3,4-d]pyrimidin-3-yl]-7,7-dimethyl-5,7-dihydro-6H-pyrrolo[2,3-e][1,2,4]triazin-6-one], the IC50 stood at 16 nM in assay [1] and 1140 nM in assay [2]. Moreover, in assay [3], the minimal effective concentration was found to be 0.3 µM.
For `Cc1ncc2c(-c3ncc4c(n3)NC(=O)C4(C)C)nn(Cc3cccc(F)c3F)c2n1` [Example 17, 2-[1-(2,3-Difluorobenzyl)-6-methyl-1H-pyrazolo[3,4-d]pyrimidin-3-yl]-5,5-dimethyl-5,7-dihydro-6H-pyrrolo[2,3-d]pyrimidin-6-one], the IC50 amounted to 230 nM in assay [1] and 292 nM in assay [2]. Moreover, the minimal effective concentration in assay [3] was determined as 0.3 µM.
The like results for `CCc1nc(-n2nc(Cc3ccccc3F)c3cc(F)ccc32)nc2c1C(C)(C)C(=O)N2` [Example 23, 4-Ethyl-2-[5-fluoro-3-(2-fluorobenzyl)-1H-indazol-1-yl]-5,5-dimethyl-5,7-dihydro-6H-pyrrolo[2,3-d]pyrimidin-6-one] were, in that order, 440 nM, 8060 nM and 1 µM.

The values above are taken from US9023849B2, “Substituted fused imidazoles and pyrazoles and use thereof” (Bayer Intellectual Property GmbH, priority 2012, dated 2015).
